Data set [1] relates to Ctenocephalides felis. The data set can be described thus: Ctenocephalides felis in vitro contact test with adult cat fleas. In kind it is in vivo. The following applies: application rate 5 μg/cm^2 (=500 g/ha), after 48 h. The method, then:
For the coating of the test tubes, 9 mg of active ingredient are first dissolved in 1 ml of acetone p.a. and then diluted to the desired concentration with acetone p.a. 250 μl of the solution are distributed homogeneously on the inner walls and the base of a 25 ml test tube by turning and rocking on an orbital shaker (rocking rotation at 30 rpm for 2 h). With 900 ppm active ingredient solution and internal surface area 44.7 cm^2, given homogeneous distribution, an area-based dose of 5 μg/cm^2 is achieved. After the solvent has evaporated off, the tubes are populated with 5-10 adult cat fleas (Ctenocephalides felis), sealed with a perforated plastic lid and incubated in a horizontal position at room temperature and ambient humidity. After 48 h, efficacy is determined. To this end, the test tubes are stood upright and the fleas are knocked to the base of the tube. Fleas which remain motionless at the base or move in an uncoordinated manner are considered to be dead or moribund. […] 100% efficacy means that all the fleas were dead or moribund. 0% efficacy means that no fleas were harmed.

The subject of data set [2] is Ctenocephalides felis. The data set can be described thus: Ctenocephalides felis oral test. In kind it is in vivo. Particulars: 100 ppm in citrated cattle blood; adult cat fleas; after 2 days. On the procedure:
For the purpose of production of a suitable active ingredient preparation, 10 mg of active ingredient are mixed with 0.5 ml of dimethyl sulphoxide. Dilution with citrated cattle blood gives the desired concentration. About 20 unfed adult cat fleas (Ctenocephalides felis) are placed into a chamber which is closed at the top and bottom with gauze. A metal cylinder whose bottom end is closed with parafilm is placed onto the chamber. The cylinder contains the blood/active ingredient preparation, which can be imbibed by the fleas through the parafilm membrane. After 2 days, the kill in % is determined. 100% means that all of the fleas have been killed; 0% means that none of the fleas have been killed.

The test system of a further data set is Lucilia cuprina. The data set can be described thus: Lucilia cuprina test. In kind it is in vivo. Particulars: 100 ppm; L1 larvae; after 2 days. The method, then: To produce a suitable active ingredient preparation, 10 mg of active ingredient are mixed with 0.5 ml of dimethyl sulphoxide, and the concentrate is diluted with water to the desired concentration. About 20 L1 larvae of the Australian sheep blowfly (Lucilia cuprina) are transferred into a test vessel containing minced horsemeat and the active ingredient preparation of the desired concentration. After 2 days, the kill in % is determined. 100% means that all the larvae have been killed; 0% means that no larvae have been killed.

The test system of another data set is Musca domestica. The data set can be described thus: Musca domestica test. Type of data set: in vivo. Particulars: 4 ppm; adult houseflies; after 2 days. On the procedure: To produce a suitable active ingredient preparation, 10 mg of active ingredient are mixed with 0.5 ml of dimethyl sulphoxide, and the concentrate is diluted with water to the desired concentration. Vessels containing a sponge treated with sugar solution and the active ingredient preparation of the desired concentration are populated with 10 adult houseflies (Musca domestica). After 2 days, the kill in % is determined. 100% means that all of the flies have been killed; 0% means that none of the flies have been killed.

Another data set relates to Meloidogyne incognita. The experiment in a line: Meloidogyne incognita test. In kind it is in vivo. Particulars: 20 ppm; lettuce; after 14 days. On the procedure: To produce a suitable preparation of active ingredient, 1 part by weight of active ingredient is mixed with the stated amount of solvent and the concentrate is diluted with water to the desired concentration. Vessels are filled with sand, active ingredient solution, an egg/larvae suspension of the southern root-knot nematode (Meloidogyne incognita) and lettuce seeds. The lettuce seeds germinate and the plants develop. The galls develop on the roots. After 14 days, the nematicidal efficacy in % is determined by the formation of galls. 100% means that no galls were found; 0% means that the number of galls on the treated plants corresponds to the untreated control.

A further data set has as its system Myzus persicae. The experiment in a line: Myzus persicae spray test. Type of data set: in vivo. The following applies: foliar, 100 g/ha, Chinese cabbage leaf discs, after 5-6 days, read-out: efficacy. On the procedure:
(§1) To produce a suitable active ingredient preparation, 1 part by weight of active ingredient is dissolved with the stated parts by weight of solvent and made up with water containing an emulsifier concentration of 1000 ppm until the desired concentration is attained. To produce further test concentrations, the preparation is diluted with emulsifier-containing water. Discs of Chinese cabbage leaves (Brassica pekinensis) infested by all stages of the green peach aphid (Myzus persicae) are sprayed with an active ingredient preparation of the desired concentration. After 5-6 days, the efficacy in % is determined. 100% means that all the aphids have been killed; 0% means that no aphids have been killed.

A further data set concerns Phaedon cochleariae. The data set can be described thus: Phaedon cochleariae spray test. Type of data set: in vivo. The following applies: foliar, 168 h, 500 g/ha, larvae on Chinese cabbage leaf discs, after 7 days, read-out: efficacy. On the procedure:
as §1, with “pekinensis)” for “pekinensis) infested by all stages of the green peach aphid (Myzus persicae)”, “concentration and, after drying, populated with larvae of the mustard beetle (Phaedon cochleariae).” for “concentration.”, “7” for “5-6”, “beetle larvae” for “aphids”

Another data set relates to Spodoptera frugiperda. The data set can be described thus: Spodoptera frugiperda spray test. Type of data set: in vivo. Particulars: foliar, 168 h, 500 g/ha, caterpillars on maize leaf discs, after 7 days, read-out: efficacy. The method, then:
To produce a suitable active ingredient preparation, 1 part by weight of active ingredient is dissolved with the stated parts by weight of solvent and made up with water containing an emulsifier concentration of 1000 ppm until the desired concentration is attained. To produce further test concentrations, the preparation is diluted with emulsifier-containing water. Leaf discs of maize (Zea mays) are sprayed with an active ingredient preparation of the desired concentration and, after drying, populated with caterpillars of the armyworm (Spodoptera frugiperda). After 7 days, the efficacy in % is determined. 100% means that all the caterpillars have been killed; 0% means that no caterpillar has been killed.

Data set [3] can be described thus: log P by HPLC on reversed-phase column (EEC Directive 79/831 Annex V.A8). Type of data set: physicochemical. Particulars: reversed-phase C18 HPLC column; pH 7.8, aqueous ammonium hydrogencarbonate/acetonitrile; 55° C.; read-out: log P (neutral). The method, then:
The log P values are measured according to EEC Directive 79/831 Annex V.A8 by HPLC (high-performance liquid chromatography) on a reversed-phase column (C 18). Temperature: 55° C. The LC-MS determination in the acidic range is effected at pH 2.7 using 0.1% aqueous formic acid and acetonitrile (contains 0.1% formic acid) as eluents; linear gradient from 10% acetonitrile to 95% acetonitrile. Called log P (HCOOH) in the table. LC-MS determination in the neutral range is effected at pH 7.8 with 0.001 molar aqueous ammonium hydrogencarbonate solution and acetonitrile as eluents; linear gradient from 10% acetonitrile to 95% acetonitrile. Called log P (neutral) in the table. Calibration is carried out using unbranched alkan-2-ones (having 3 to 16 carbon atoms) with known log P values (log P values determined on the basis of the retention times by linear interpolation between two successive alkanones).

Regarding `CCS(=O)(=O)c1cc2ccccc2nc1-c1nc2cc(C(F)(F)F)ncc2n1C` [Example I-1, 3-Ethylsulphonyl-2-[3-methyl-6-(trifluoromethyl)imidazo[4,5-c]pyridin-2-yl]quinoline], in the data set with Ctenocephalides felis [1], the efficacy is reported as 100%. Also, the “efficacy (kill)” value with Ctenocephalides felis [2] is 100%; in the data set on Lucilia cuprina, 100%; with Musca domestica it was 75%. Also, the “nematicidal efficacy (formation of galls)” value in the data set with Meloidogyne incognita worked out at 70%. Further, the pest or weed control at 100 g/ha in the data set with Myzus persicae turned out to be 90%. Further, the pest or weed control at 500 g/ha with Phaedon cochleariae and in the data set with Spodoptera frugiperda was 100% each time. The chromatographic logP in data set [3] stood at 2.75.

Values taken from patent US10550116B2, “Fused bicyclic heterocycle derivatives as pesticides” (BAYER CROPSCIENCE AKTIENGESELLSCHAFT, priority 2015, dated 2020).
